Literature values as cited in PMC12840679, “Rational Design, Synthesis and Pharmacological Evaluation of Chalcones as Dual-Acting Compounds—Histamine H3 Receptor Ligands and MAO-B Inhibitors” (International Journal of Molecular Sciences, 2026).
pKi: −log10 of the molar value.

Target: hH3R (Homo sapiens, UniProt Q9Y5N1)
Conditions: HEK293 cells

Chain of hH3R (Q9Y5N1 whole entry): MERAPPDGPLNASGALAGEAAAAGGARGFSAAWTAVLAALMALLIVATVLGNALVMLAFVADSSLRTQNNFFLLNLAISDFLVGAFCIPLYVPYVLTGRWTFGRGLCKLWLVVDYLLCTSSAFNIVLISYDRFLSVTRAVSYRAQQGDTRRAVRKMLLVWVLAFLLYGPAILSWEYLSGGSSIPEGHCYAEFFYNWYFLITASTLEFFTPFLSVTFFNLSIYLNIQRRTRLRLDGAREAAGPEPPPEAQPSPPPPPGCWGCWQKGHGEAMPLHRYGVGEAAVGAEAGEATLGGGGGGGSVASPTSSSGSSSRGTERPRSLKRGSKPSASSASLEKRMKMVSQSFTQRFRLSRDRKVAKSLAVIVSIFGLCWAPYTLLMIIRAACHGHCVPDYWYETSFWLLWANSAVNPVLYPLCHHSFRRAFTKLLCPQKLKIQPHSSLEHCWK

pKi: 7.24
SMILES: CC(C)(C)c1ccc(OCCCN2CCCCC2)cc1 [DL76]
